How the values were obtained:
L1210 Leukemia (CDF1) = assay: broad spectrum antitumor activity in mice, L1210 leukemia; assay type: in vivo; settings: IP/IP
From the text: (§1) Broad Spectrum Antitumor Activity^* of 2-[2-(Diethylamino)ethyl]-7,10-dihydroxy-5-[[2-[(2-hydroxyethyl)amino]ethyl]amino]anthra[1-9-cd]pyrazol-6(2H)-one Dihydrochloride in Mice

Streptococcus faecalis = assay: agar plate paper-disc inhibition zone screening; assay type: cell-based; settings: Enterococcus faecalis; Dose 1.0 mg/ml; read-out: Inhibition Zone Diameter mm (Dose mg/ml) S. Faecalis
Method in brief: (§2)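 Inoculum: saline suspension, 20-35% transmittancy, in molten agar. Discs 12.7 mm, compound 3,000/1,000/500/100/10 mcg/ml, solvent <10%. 37°C, 18-20 h; zone diameter in mm.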

Bacillus subtilis = assay: agar plate paper-disc inhibition zone screening; assay type: cell-based; settings: Dose 1.0 mg/ml, read-out: Inhibition Zone Diameter mm (Dose mg/ml) B. Subtilis
Method in brief: as §2

Aerobacter aerogenes = assay: agar plate paper-disc inhibition zone screening; assay type: cell-based; settings: Klebsiella aerogenes; Dose 1.0 mg/ml; read-out: Inhibition Zone Diameter mm (Dose mg/ml) A. Aerogenes
Method in brief: as §2

Escherichia coli = assay: agar plate paper-disc inhibition zone screening; assay type: cell-based; settings: Dose 0.5 mg/ml, read-out: Inhibition Zone Diameter mm (Dose mg/ml) E. Coli
Method in brief: as §2

M5076 Ovary = assay: broad spectrum antitumor activity in mice, M5076 ovary; assay type: in vivo; settings: IP/IP
From the text: as §1

Colon 38 (BDF1) = assay: broad spectrum antitumor activity in mice, Colon 38; assay type: in vivo; settings: SC/IP, Q01D × 09, Dose 16 mg/kg
From the text: as §1

ADJ—PC6 Plasmacytoma = assay: broad spectrum antitumor activity in mice, ADJ-PC6 plasmacytoma; assay type: in vivo; settings: IP/IP
From the text: as §1

B16 Melanoma (BDF1) = assay: broad spectrum antitumor activity in mice, B16 melanoma (BDF1); assay type: in vivo; settings: IP/IP
From the text: as §1

B16 Melanoma (B6C3F1) = assay: broad spectrum antitumor activity in mice, B16 melanoma (B6C3F1); assay type: in vivo; settings: I-/IP
From the text: as §1

[1] = test system: lymphocytic leukemia P388; assay: in vivo lymphocytic leukemia P388 test; parameters: species or system mice; settings: Mus musculus, P388, ip, 720 h, two single doses four days apart, read-out: T/C × 100 (Percent)
Method in brief: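 CD2F mice (6–7 per group) were inoculated intraperitoneally with P388 leukemia ascitic cells. Compounds were then given i.p. as two doses four days apart at various levels. Survival over 30 days was expressed as treated/control time ratio, efficacy criterion T/C×100 >125%.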

Penicillium avellaneum = assay: agar plate paper-disc inhibition zone screening; assay type: cell-based; settings: Hamigera avellanea; Dose 3.0 mg/ml; read-out: Inhibition Zone Diameter mm (Dose mg/ml) P. Avellaneum
Method in brief: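 Mycelia and spores from a six-day 28°C agar culture, suspended in saline with 0.05% Tween 80 at 20% transmittancy, were seeded into molten agar trays. Compounds at 3,000, 1,000, 500, 100 and 10 mcg/ml (solvent <10%) were applied on 12.7 mm paper discs. After at least 20-24 h incubation, inhibition zone diameter was measured in mm.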

SMILES: CCN(CC)CCn1nc2c3c(c(NCCNCCO)ccc31)C(=O)c1c(O)ccc(O)c1-2 [Example 28, 2-[2-(Diethylamino)ethyl]-7,10-dihydroxy-5-[[2-[(2-hydroxyethyl)amino]ethyl]amino]anthra[1,9-cd]pyrazol-6(2H)-one]
- T/C × 100 (Percent) (L1210 Leukemia (CDF1); Q01D × 09, Dose 1 mg/kg): 137%
- T/C × 100 (Percent) (L1210 Leukemia (CDF1); Q01D × 09, Dose 2 mg/kg): 144%
- T/C × 100 (Percent) (L1210 Leukemia (CDF1); Q01D × 09, Dose 4 mg/kg): 178%
- T/C × 100 (Percent) (L1210 Leukemia (CDF1); Q01D × 09, Dose 8 mg/kg): 240%
- T/C × 100 (Percent) (L1210 Leukemia (CDF1); Q01D × 09, Dose 16 mg/kg): 133%
- zone of inhibition at 1000 µg/mL (Streptococcus faecalis): 14 mm
- zone of inhibition at 1000 µg/mL (Bacillus subtilis): 15 mm
- zone of inhibition at 1000 µg/mL (Aerobacter aerogenes): 14 mm
- zone of inhibition at 500 µg/mL (Escherichia coli): 14 mm
- T/C × 100 (Percent) (M5076 Ovary; Q04D × 04, Dose 1.25 mg/kg): 143%
- T/C × 100 (Percent) (M5076 Ovary; Q04D × 04, Dose 2.5 mg/kg): 233%
- T/C × 100 (Percent) (M5076 Ovary; Q04D × 04, Dose 5 mg/kg): 186%
- T/C × 100 (Percent) (M5076 Ovary; Q04D × 04, Dose 10 mg/kg): 260%
- % Tumor Reduction (Colon 38 (BDF1)): 71%
- T/C × 100 (Percent) (ADJ—PC6 Plasmacytoma; Q04D × 03, Dose 2 mg/kg): 207%
- T/C × 100 (Percent) (ADJ—PC6 Plasmacytoma; Q04D × 03, Dose 4 mg/kg): 216%
- T/C × 100 (Percent) (ADJ—PC6 Plasmacytoma; Q04D × 03, Dose 8 mg/kg): 235%
- T/C × 100 (Percent) (ADJ—PC6 Plasmacytoma; Q04D × 03, Dose 16 mg/kg): 163%
- T/C × 100 (Percent) (B16 Melanoma (BDF1); Q01D × 09, Dose 4 mg/kg): 151%
- T/C × 100 (Percent) (B16 Melanoma (BDF1); Q01D × 09, Dose 8 mg/kg): 176%
- T/C × 100 (Percent) (B16 Melanoma (B6C3F1); Q01D × 09, Dose 3 mg/kg): 148%
- T/C × 100 (Percent) (B16 Melanoma (B6C3F1); Q01D × 09, Dose 6 mg/kg): 189%
- response vs control in vivo at 0.78 mg/kg ([1]; P388, Dose 0.78 mg/kg intraperitoneally): 140%
- response vs control in vivo at 1.56 mg/kg ([1]; P388, Dose 1.56 mg/kg intraperitoneally): 148%
- response vs control in vivo at 3.12 mg/kg ([1]; P388, Dose 3.12 mg/kg intraperitoneally): 164%
- response vs control in vivo at 6.25 mg/kg ([1]; P388, Dose 6.25 mg/kg intraperitoneally): 180%
- zone of inhibition at 3000 µg/mL (Penicillium avellaneum): 0 mm
